Test results taken from ChEMBL document CHEMBL4308841, “Synthesis, in vitro antiproliferative activity, and kinase inhibitory effects of pyrazole-containing diarylureas and diarylamides” (Eur J Med Chem, 2018).

Legend:
TK-10 = test: Growth inhibition of human TK10 cells assessed as cell growth at 10 uM incubated for 48 hrs by sulforhodamine B assay relative to control; format: functional; conditions: TK-10, 48 h, read-out: Activity
NCI-H522 = test: Growth inhibition of human NCI-H522 cells incubated for 48 hrs by sulforhodamine B assay; format: functional, cell-based; conditions: NCI-H522, 48 h
HCT-15 [1] = test: Growth inhibition of human HCT15 cells incubated for 48 hrs by sulforhodamine B assay; format: functional, cell-based; conditions: HCT-15, 48 h
Malme-3M = test: Growth inhibition of human MALME-3M cells incubated for 48 hrs by sulforhodamine B assay; format: functional, cell-based
OVCAR-8 = test: Growth inhibition of human OVCAR8 cells incubated for 48 hrs by sulforhodamine B assay; format: functional, cell-based; conditions: OVCAR-8, 48 h
Hs-578T [2] = test: Growth inhibition of human Hs578T cells incubated for 48 hrs by sulforhodamine B assay; format: functional, cell-based
HCT-116 [3] = test: Growth inhibition of human HCT116 cells assessed as cell growth at 0.01 uM incubated for 48 hrs by sulforhodamine B assay relative to control; format: functional; conditions: HCT-116, 48 h, read-out: Activity
SNB-19 = test: Growth inhibition of human SNB19 cells assessed as cell growth at 0.01 uM incubated for 48 hrs by sulforhodamine B assay relative to control; format: functional; conditions: SNB-19, 48 h, read-out: Activity
SNB-75 [4] = test: Growth inhibition of human SNB75 cells assessed as cell growth at 0.01 uM incubated for 48 hrs by sulforhodamine B assay relative to control; format: functional; conditions: SNB-75, 48 h, read-out: Activity
RXF 393 = test: Growth inhibition of human RXF393 cells assessed as cell growth at 0.01 uM incubated for 48 hrs by sulforhodamine B assay relative to control; format: functional; conditions: RXF 393, 48 h, read-out: Activity
SR = test: Growth inhibition of human SR cells assessed as cell growth at 0.1 uM incubated for 48 hrs by sulforhodamine B assay relative to control; format: functional; conditions: read-out: Activity
NCI-H23 [5] = test: Growth inhibition of human NCI-H23 cells assessed as cell growth at 0.1 uM incubated for 48 hrs by sulforhodamine B assay relative to control; format: functional; conditions: NCI-H23, 48 h, read-out: Activity
HCT-116 [6] = test: Growth inhibition of human HCT116 cells assessed as cell growth at 0.1 uM incubated for 48 hrs by sulforhodamine B assay relative to control; format: functional; conditions: HCT-116, 48 h, read-out: Activity
SF-268 = test: Growth inhibition of human SF268 cells assessed as cell growth at 0.1 uM incubated for 48 hrs by sulforhodamine B assay relative to control; format: functional; conditions: SF-268, 48 h, read-out: Activity
SNB-75 [7] = test: Growth inhibition of human SNB75 cells assessed as cell growth at 0.1 uM incubated for 48 hrs by sulforhodamine B assay relative to control; format: functional; conditions: SNB-75, 48 h, read-out: Activity
M14 = test: Growth inhibition of human M14 cells assessed as cell growth at 0.1 uM incubated for 48 hrs by sulforhodamine B assay relative to control; format: functional; conditions: M14, 48 h, read-out: Activity
IGROV-1 = test: Growth inhibition of human IGROV1 cells assessed as cell growth at 0.1 uM incubated for 48 hrs by sulforhodamine B assay relative to control; format: functional; conditions: IGROV-1, 48 h, read-out: Activity
OVCAR-3 = test: Growth inhibition of human OVCAR3 cells assessed as cell growth at 0.1 uM incubated for 48 hrs by sulforhodamine B assay relative to control; format: functional; conditions: OVCAR-3, 48 h, read-out: Activity
SN12C = test: Growth inhibition of human SN12C cells assessed as cell growth at 0.1 uM incubated for 48 hrs by sulforhodamine B assay relative to control; format: functional; conditions: read-out: Activity
Hs-578T [8] = test: Growth inhibition of human Hs578T cells assessed as cell growth at 0.1 uM incubated for 48 hrs by sulforhodamine B assay relative to control; format: functional; conditions: read-out: Activity
NCI-H23 [9] = test: Growth inhibition of human NCI-H23 cells assessed as cell growth at 1 uM incubated for 48 hrs by sulforhodamine B assay relative to control; format: functional; conditions: NCI-H23, 48 h, read-out: Activity
SNB-75 [10] = test: Growth inhibition of human SNB75 cells assessed as cell growth at 1 uM incubated for 48 hrs by sulforhodamine B assay relative to control; format: functional; conditions: SNB-75, 48 h, read-out: Activity
U-251 = test: Growth inhibition of human U251 cells assessed as cell growth at 1 uM incubated for 48 hrs by sulforhodamine B assay relative to control; format: functional; conditions: U-251, 48 h, read-out: Activity
OVCAR-5 = test: Growth inhibition of human OVCAR5 cells assessed as cell growth at 1 uM incubated for 48 hrs by sulforhodamine B assay relative to control; format: functional; conditions: OVCAR-5, 48 h, read-out: Activity
786-0 = test: Growth inhibition of human 786-0 cells assessed as cell growth at 1 uM incubated for 48 hrs by sulforhodamine B assay relative to control; format: functional; conditions: 786-0, 48 h, read-out: Activity
CAKI-1 = test: Growth inhibition of human Caki1 cells assessed as cell growth at 1 uM incubated for 48 hrs by sulforhodamine B assay relative to control; format: functional; conditions: CAKI-1, 48 h, read-out: Activity
HCT-15 [11] = test: Growth inhibition of human HCT15 cells assessed as cell growth at 100 uM incubated for 48 hrs by sulforhodamine B assay relative to control; format: functional; conditions: HCT-15, 48 h, read-out: Activity
HT-29 = test: Growth inhibition of human HT-29 cells assessed as cell growth at 100 uM incubated for 48 hrs by sulforhodamine B assay relative to control; format: functional; conditions: HT-29, 48 h, read-out: Activity
UO-31 = test: Growth inhibition of human UO31 cells assessed as cell growth at 100 uM incubated for 48 hrs by sulforhodamine B assay relative to control; format: functional; conditions: UO-31, 48 h, read-out: Activity
BT-549 = test: Growth inhibition of human BT549 cells assessed as cell growth at 100 uM incubated for 48 hrs by sulforhodamine B assay relative to control; format: functional; conditions: BT-549, 48 h, read-out: Activity
MDA-MB-468 = test: Growth inhibition of human MDA-MB-468 cells assessed as cell growth at 100 uM incubated for 48 hrs by sulforhodamine B assay relative to control; format: functional; conditions: MDA-MB-468, 48 h, read-out: Activity
[12] = read-out: LC50 (the source's name)
[13] = read-out: pLC50 (the source's name) (converted)

## COc1cc(Cl)cc(-c2nn(-c3cccc(NC(=O)Nc4cccc(C(F)(F)F)c4)c3)cc2-c2ccncc2)c1
TK-10
  growth at 10 µM: 23.4%
NCI-H522; read-out: GI50
  GI50: 0.445 µM
NCI-H522; [12]
  CC50: 10 µM
NCI-H522; read-out: TGI
  TGI: 25.1 µM
NCI-H522; [13]
  CC50: 10.2 µM
HCT-15 [1]; read-out: GI50
  GI50: 1.34 µM
HCT-15 [1]; [12]
  CC50: 50 µM
HCT-15 [1]; read-out: TGI
  TGI: 10.6 µM
HCT-15 [1]; read-out: pGI50 (converted)
  GI50: 1.35 µM
HCT-15 [1]; [13]
  CC50: 50.1 µM
HCT-15 [1]; read-out: pTGI (converted)
  TGI: 10.7 µM
Malme-3M; read-out: GI50
  GI50: 1.79 µM
Malme-3M; [12]
  CC50: > 100 µM
Malme-3M; read-out: TGI
  TGI: 59.1 µM
Malme-3M; read-out: pGI50 (converted)
  GI50: 1.78 µM
Malme-3M; [13]
  CC50: > 100 µM
Malme-3M; read-out: pTGI (converted)
  TGI: 5.89 µM
OVCAR-8; read-out: GI50
  GI50: 1.12 µM
OVCAR-8; [12]
  CC50: > 100 µM
OVCAR-8; read-out: TGI
  TGI: 45.8 µM
OVCAR-8; read-out: pGI50 (converted)
  GI50: 1.12 µM
OVCAR-8; [13]
  CC50: > 100 µM
OVCAR-8; read-out: pTGI (converted)
  TGI: 4.9 µM
Hs-578T [2]; read-out: GI50
  GI50: 4.05 µM
Hs-578T [2]; [12]
  CC50: > 100 µM
Hs-578T [2]; read-out: TGI
  TGI: > 100 µM
Hs-578T [2]; read-out: pGI50 (converted)
  GI50: 4.07 µM
Hs-578T [2]; [13]
  CC50: > 100 µM
Hs-578T [2]; read-out: pTGI (converted)
  TGI: > 100 µM
HCT-116 [3]
  growth at 0.01 µM: 101%
SNB-19
  growth at 0.01 µM: 98%
SNB-75 [4]
  growth at 0.01 µM: 83%
RXF 393
  growth at 0.01 µM: 93%
SR
  growth at 0.1 µM: 93%
NCI-H23 [5]
  growth at 0.1 µM: 90%
HCT-116 [6]
  growth at 0.1 µM: 99%
SF-268
  growth at 0.1 µM: 94%
SNB-75 [7]
  growth at 0.1 µM: 55%
M14
  growth at 0.1 µM: 93%
IGROV-1
  growth at 0.1 µM: 96%
OVCAR-3
  growth at 0.1 µM: 98%
SN12C
  growth at 0.1 µM: 96%
Hs-578T [8]
  growth at 0.1 µM: 93%
NCI-H23 [9]
  growth at 1 µM: 71%
SNB-75 [10]
  growth at 1 µM: 68%
U-251
  growth at 1 µM: 47%
OVCAR-5
  growth at 1 µM: 88%
786-0
  growth at 1 µM: 77%
CAKI-1
  growth at 1 µM: 57%
HCT-15 [11]
  growth at 100 µM: -72%
HT-29
  growth at 100 µM: -97%
UO-31
  growth at 100 µM: -20%
BT-549
  growth at 100 µM: -48%
MDA-MB-468
  growth at 100 µM: -34%
